# In patent US9850225B2, “Compounds useful as immunomodulators” (BRISTOL-MYERS SQUIBB COMPANY, priority 2014, dated 2017):
# Like-named read-outs stand apart in the source and are kept apart here.
# Biological target: PD-1/PD-L1 interaction (PD-1-Ig / PD-L1-His) (Homo sapiens (Human), UniProt Q9NZQ7)
# Test: PD-1/PD-L1 Homogenous Time-Resolved Fluorescence (HTRF) binding assay
# Details: PD-1/PD-L1 HTRF binding assay, read-out: Range or IC50
# Text: The ability of the compounds of formula (I) to bind to PD-L1 was investigated using a PD-1/PD-L1 Homogenous Time-Resolved Fluorescence (HTRF) binding assay.
# Homogenous Time-Resolved Fluorescence (HTRF) Binding Assay.
# The interaction of PD-1 and PD-L1 can be assessed using soluble, purified preparations of the extracellular domains of the two proteins. The PD-1 and PD-L1 protein extracellular domains were expressed as fusion proteins with detection tags, for PD-1, the tag was the Fc portion of Immunoglobulin (PD-1-Ig) and for PD-L1 it was the 6 histidine motif (PD-L1-His). All binding studies were performed in an HTRF assay buffer consisting of dPBS supplemented with 0.1% […] bovine serum albumin and 0.05% (v/v) Tween-20. For the h/PD-L1-His binding assay, inhibitors were pre-incubated with PD-L1-His (10 nM final) for 15 m in 4 μl of assay buffer, followed by addition of PD-1-Ig (20 nM final) in 1 μl of assay buffer and further incubation for 15 m. HTRF detection was achieved using europium crypate-labeled anti-Ig (1 nM final) and allophycocyanin (APC) labeled anti-His (20 nM final). Antibodies were diluted in HTRF detection buffer and 5 μl was dispensed on top of the binding reaction. […] Additional binding assays were established between the human proteins PD-1-Ig/PD-L2-His (20 & 5 nM, respectively) and CD80-His/PD-L1-Ig (100 & 10 nM, respectively). […]
# PD-1/PD-L1 interaction (PD-1-Ig / PD-L1-His), sequence (Q9NZQ7 other isoform, or with tags, fused parts or gaps): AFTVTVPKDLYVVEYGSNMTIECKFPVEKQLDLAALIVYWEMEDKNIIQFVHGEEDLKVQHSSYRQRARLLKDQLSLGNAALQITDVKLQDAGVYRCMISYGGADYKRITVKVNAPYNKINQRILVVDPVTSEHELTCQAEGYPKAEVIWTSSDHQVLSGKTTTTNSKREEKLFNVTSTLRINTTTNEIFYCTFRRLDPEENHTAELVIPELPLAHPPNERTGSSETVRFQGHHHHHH
structure (smiles),measurement,setting,value
"CC(=O)NCCNCc1ccc(OCc2cccc(-c3ccccc3)c2C)cc1OCc1cccc(OC(F)F)c1 [Example 1116, N-(2-((2-((3-(difluoromethoxy)benzyl)oxy)-4-((2-methyl-[1,1′-biphenyl]-3-yl)methoxy)benzyl)amino)ethyl)acetamide]",IC50,value given as range class,100 to 20000 nM
"CC(=O)NCCNCc1ccc(OCc2cccc(-c3ccccc3)c2C)cc1OCCCO [Example 1035, N-(2-((2-(3-hydroxypropoxy)-4-((2-methyl-[1,1′-biphenyl]-3-yl)methoxy)benzyl)amino)ethyl)acetamide]",IC50,value given as range class,100 to 20000 nM
"C[C@](CO)(NCc1ccc(OCc2cccc(-c3ccc4c(c3)OCCO4)c2Cl)cc1OCc1cccc(C#N)c1)C(=O)O [Example 1148, (R)-2-(4-(2-chloro-3-(2,3-dihydrobenzo[b][1,4]dioxin-6-yl)benzyloxy)-2-(3-cyanobenzyloxy)benzylamino)-3-hydroxy-2-methylpropanoic acid]",IC50,value given as range class,0.6 to 10 nM
"Cc1c(COc2ccc(CN[C@](C)(CO)C(=O)O)c(OCc3cccc(C#N)c3)c2)cccc1-c1ccc2c(c1)OCCO2 [Example 1127, (R)-2-((2-((3-cyanobenzyl)oxy)-4-((3-(2,3-dihydrobenzo[b][1,4]dioxin-6-yl)-2-methylbenzyl)oxy)benzyl)amino)-3-hydroxy-2-methylpropanoic acid]",IC50,value given as range class,0.6 to 10 nM
"Cc1c(COc2cc(OCc3cccc(C#N)c3)c(CNC(CCS(C)(=O)=O)C(=O)O)cc2Cl)cccc1-c1ccc2c(c1)OCCO2 (centres unmarked) [Example 1182, 2-((5-chloro-2-((3-cyanobenzyl)oxy)-4-((3-(2,3-dihydrobenzo[b][1,4]dioxin-6-yl)-2-methylbenzyl)oxy)benzyl)amino)-4-(methylsulfonyl)butanoic acid]",IC50,value given as range class,0.6 to 10 nM
"Cc1c(COc2cc(OCc3cncc(Br)c3)c(CN[C@](C)(CO)C(=O)O)cc2Cl)cccc1-c1ccc2c(c1)OCCO2 [Example 1254, (R)-2-(2-((5-bromopyridin-3-yl)methoxy)-5-chloro-4-(3-(2,3-dihydrobenzo[b][1,4]dioxin-6-yl)-2-methylbenzyloxy)benzylamino)-3-hydroxy-2-methylpropanoic acid]",IC50,value given as range class,0.6 to 10 nM
"CC(=O)NCCNCc1ccc(OCc2cccc(-c3ccccc3)c2C)cc1OCc1cc(C)cc(F)c1 [Example 1113, N-(2-((2-((3-fluoro-5-methylbenzyl)oxy)-4-((2-methyl-[1,1′-biphenyl]-3-yl)methoxy)benzyl)amino)ethyl)acetamide]",IC50,value given as range class,100 to 20000 nM
"Cc1c(COc2ccc(CN[C@](C)(CO)C(=O)O)c(OCc3cccc(C#N)c3)c2)cccc1-c1ccccc1 [Example 1023, (R)-2-((2-((3-cyanobenzyl)oxy)-4-((2-methyl-[1,1′-biphenyl]-3-yl)methoxy)benzyl)amino)-3-hydroxy-2-methylpropanoic acid]",IC50,value given as range class,0.6 to 10 nM
"CC(=O)NCCNCc1ccc(OCc2cccc(-c3ccccc3)c2C)cc1OCc1cccc(NC(=O)OC(C)(C)C)c1 [Example 1119, tert-butyl (3-((2-(((2-acetamidoethyl)amino)methyl)-5-((2-methyl-[1,1′-biphenyl]-3-yl)methoxy)phenoxy)methyl)phenyl)carbamate]",IC50,numeric value,14200 nM
"Cc1c(COc2cc(OCc3cccc(C#N)c3)c(CN[C@H](Cc3cscn3)C(=O)O)cc2Cl)cccc1-c1ccc2c(c1)OCCO2 [Example 1206, (R)-2-((5-chloro-2-((3-cyanobenzyl)oxy)-4-((3-(2,3-dihydrobenzo[b][1,4]dioxin-6-yl)-2-methylbenzyl)oxy)benzyl)amino)-3-(thiazol-4-yl)propanoic acid]",IC50,value given as range class,0.6 to 10 nM
"Cc1cc(CN2CCCC[C@H]2C(=O)O)c(OCc2cncc(C#N)c2)cc1OCc1cccc(-c2ccc3c(c2)OCCO3)c1Cl [Example 1152, (S)-1-(4-(2-chloro-3-(2,3-dihydrobenzo[b][1,4]dioxin-6-yl)benzyloxy)-2-((5-cyanopyridin-3-yl)methoxy)-5-methylbenzyl)piperidine-2-carboxylic acid]",IC50,value given as range class,0.6 to 10 nM
